From patent publication US10197567B2, “Azoline compound and azole compound library and method for producing same” (The University of Tokyo, priority 2011, dated 2019)
Square brackets hold non-standard residues; d marks the D form. Ends that are not written are not given here. * marks the point of attachment. Dap = NC[C@H](N)C(=O)O; For = O=C*

Test system: PatD
Assay: PatD enzyme reaction: introduction of azoline rings into substrate peptides, mass change read by MALDI-TOF-MS
Type: biochemical, Prochloron didemni
Details: for Dehydrated molecules: modification with PatD of synthesized substrates (Table 11-2)
Description: After the DNA prepared in 3-2 was transcribed and translated in a cell-free protein expression system of 2.5 μl scale in accordance with the method of Kawakami, et al. (Kawakami et al., Chemistry & Biology 15, 32-42 (2008)) and the solution conditions were adjusted by adding 40 mM Tris-HCl (pH 8.0), 8 mM DTT, 4 mM MgCl2, and 0.8 mM ATP (each, final concentration), recombinant PatD was added.
The reaction was conducted under two conditions as described below.
The mass of the peptide was measured using MALDI-TOF-MS by using sinapinic acid as a matrix and whether a mass change occurred or not by the addition of PatD was checked. The number of azoline rings introduced can be found from the mass change.

Substance	Dehydrated molecules	other results
Ac—LAELSEEALGDA-GGGGG-VXAXIXFX (X=Dap)-A: synthetic peptide significantly different from a natural substrate (FIG. 17) (Ac-LAELSEEALGDAGGGGGV[Dap]A[Dap]I[Dap]F[Dap]A)	4	
fMLAELSEEALGDA-GGGGG-VXAX (X=PhSer)-A: PatD substrate with shortened leader, GGGGG and PhSer in the cassette (For-MLAELSEEALGDAGGGGGV[PhSer]A[PhSer]A)	1	
fMNKKNILPQQGQPVIRLTAGQLSSQLAELSEEALGDA-GLEAS-LCGCTSYCYTVS-AYDGV: PatD substrate: leader, recognition sequence 1, cassette, recognition sequence 2 (For-MNKKNILPQQGQPVIRLTAGQLSSQLAELSEEALGDAGLEASLCGCTSYCYTVSAYDGV; cysteine pairing not given here)	2	
fMNKKNILPQQGQPVIRLTAGQLSSQLAELSEEALGDA-GLEAS-VXAX (X=Dap)-AYDGVEPS: PatD substrate with Dap in the cassette (For-MNKKNILPQQGQPVIRLTAGQLSSQLAELSEEALGDAGLEASV[Dap]A[Dap]AYDGVEPS)	2	
C1wt: PatE precursor peptide, leader-GLEAS-cassette-AYDGVEPS; cassette VTACITFC, same as wild type PatE (GLEASVTACITFCAYDGVEPS; An example of Recognition Sequence 1 based on Prochloron didemni.; Amino acid sequence of cassette region of wild type PatE; An example of Recognition Sequence 2 based on Prochloron didemni.)		number of azoline rings introduced by PatD (modification with PatD, change in molecular weight by MALDI-TOF-MS): four
PatEC1wt-GS: precursor peptide; cassette VTACITFC, recognition sequence 2 AYDGVGSGSGS (GLEASVTACITFCAYDGVGSGSGS; An example of Recognition Sequence 1 based on Prochloron didemni.; Amino acid sequence of cassette region of wild type PatE; An example of Recognition Sequence 2 based on Prochloron didemni.)		number of heterocycles in C-terminal short peptide (treated with PatD and Glu-C, leader sequence cleaved): four
fMLAELSEEALGDA-GGGGG-VXAX (X=Dap)-A: PatD substrate with shortened leader, GGGGG and Dap in the cassette (For-MLAELSEEALGDAGGGGGV[Dap]A[Dap]A)	1	
